According to PMC8303725 (International Journal of Molecular Sciences, 2021):
Like-named read-outs stand apart in the source and are kept apart here.

What was measured:
[1] = target: T1, Human Topo I (topoisomerase I) (Homo sapiens, UniProt P11387); test: Topo I DNA relaxation fluorescence plate assay (Inspiralis); assay type: biochemical
T1 construct: gene TOP1
T1 sequence (P11387 2-765): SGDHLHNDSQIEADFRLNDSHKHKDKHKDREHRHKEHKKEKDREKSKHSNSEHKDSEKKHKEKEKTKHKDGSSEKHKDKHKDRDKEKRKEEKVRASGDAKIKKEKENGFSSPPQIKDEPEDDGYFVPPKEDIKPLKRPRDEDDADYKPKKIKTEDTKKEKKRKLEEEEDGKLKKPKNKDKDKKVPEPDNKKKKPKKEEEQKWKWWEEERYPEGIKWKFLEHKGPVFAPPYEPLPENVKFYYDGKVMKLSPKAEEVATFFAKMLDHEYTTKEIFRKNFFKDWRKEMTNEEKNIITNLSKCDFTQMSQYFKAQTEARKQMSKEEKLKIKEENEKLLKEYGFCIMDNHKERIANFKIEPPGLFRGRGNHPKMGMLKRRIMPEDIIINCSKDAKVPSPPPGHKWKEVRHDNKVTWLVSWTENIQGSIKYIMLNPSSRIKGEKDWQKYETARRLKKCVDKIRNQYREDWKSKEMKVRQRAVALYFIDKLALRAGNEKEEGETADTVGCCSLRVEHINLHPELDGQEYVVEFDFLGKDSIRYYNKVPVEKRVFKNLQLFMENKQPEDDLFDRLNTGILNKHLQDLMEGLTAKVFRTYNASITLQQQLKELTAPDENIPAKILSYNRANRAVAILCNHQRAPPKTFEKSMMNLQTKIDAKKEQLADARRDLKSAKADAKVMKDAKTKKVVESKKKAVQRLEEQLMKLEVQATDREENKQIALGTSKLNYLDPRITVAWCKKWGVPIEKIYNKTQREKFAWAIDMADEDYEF

[2] = tested on: nicked decamer 1 (nicked DNA duplex with PEG(6) tethers) (DNA, duplex, nick between T5 and G6; PEG6 tether at both ends of the duplex, joining the strands into one chain) GCGTT/GTCGC/GCGACAACGC; test: 1H/13C HSQC with 24-13C compound; settings: 25 mM NaCl, 25 mM K3PO4; covalent; pH 6; 298 K; site tentatively NH2 of a base in nick
[3] = tested on: nicked decamer 1 (nicked DNA duplex with PEG(6) tethers) (DNA, duplex, nick between T5 and G6; PEG6 tether at both ends of the duplex, joining the strands into one chain) GCGTT/GTCGC/GCGACAACGC; test: DOSY NMR; settings: 25 mM NaCl, 25 mM K3PO4; D2O, pH 6, 25 °C; filtered mother liquor; equal diffusion coefficients; bound species may include bioconjugate, 4, SN38
[4] = tested on: nicked decamer 1 (nicked DNA duplex with PEG(6) tethers) (DNA, duplex, nick between T5 and G6; PEG6 tether at both ends of the duplex, joining the strands into one chain) GCGTT/GTCGC/GCGACAACGC; test: MALDI-MS of reaction product; settings: 25 mM NaCl, 25 mM K3PO4; covalent; biohybrid peak m/z 7290.9; pH 6

IC50 ([1]; read-out: IC50) [µM] | Compound | IC50 [1] [µM] | binding [2] | binding [3] | binding [4]
 | CCc1c2c(nc3ccc(O)c(CN4CCOCC4)c13)-c1cc3c(c(=O)n1C2)COC(=O)[C@]3(O)CC [compound 3, 7-ethyl-9-(N-morpholino)methyl-10-hydroxycamptothecin] | 48.7 | yes | yes | 
40.3 | CCc1c2c(nc3ccc(O)cc13)-c1cc3c(c(=O)n1C2)COC(=O)[C@]3(O)CC [SN38] |  |  |  | 
 | CCc1c2c(nc3ccc(O)c(CNC)c13)-c1cc3c(c(=O)n1C2)COC(=O)[C@]3(O)CC [compound 2, 7-ethyl-9-(N-methylamino)methyl-10-hydroxycamptothecin] | 101 |  |  | yes
